The values below are quoted from earlier work in patent publication US10342775B2, “Vitamin A for parenteral administration” (FRESENIUS KABI DEUTSCHLAND GMBH, priority 2015, dated 2019).

For the molecule `CCCCCCCCCCCCCCCC(=O)OC/C=C(C)/C=C/C=C(C)/C=C/C1=C(C)CCCC1(C)C` [retinol palmitate], the solubility in water result is given as “practically insoluble in water”.
